A short description of data set [1]: Acceleration effect of hydroxylamine upon release of antifoggant from precursor (HPLC, half-life). The class given is physicochemical. Further details: key to Acceleration Effect: ratio of half-life without hydroxylamine to half-life with it. The conditions noted are these: for t1/2 Hydroxylamine Absent / t1/2 Hydroxylamine Present: release of antifoggant; for change in releasing speed due to addition of hydroxylamine: in words, pH 10.0 and 11.0. The method, then:
Measurement of Acceleration Effect of Hydroxylamine upon Release of Antifoggant from Precursor Thereof
(§1) The resulting solution was added to a mixture of 16 ml of acetonitrile and 20 ml of Britton-Robinson buffer solution (Britton-Robinson buffer solution can be prepared by mixing phosphoric acid, boric acid, acetic acid and sodium hydroxide, and of which pH can be adjusted within a pH range of 1.81 to 11.98), and allowed to react (wherein the pH of the solution was controlled by the buffer solution). After a definite time, acetic acid was added to lower the pH of the reaction mixture to 6.25 and thereby the reaction stopped. The antifoggant released was determined using high-speed liquid chromatography and therefrom the rate constant of the pseudo first-order reaction and, further, the half-life t1/2 were evaluated.
(§2) The acceleration effect of hydroxylamine was determined by comparison of the half-life value in the hydroxylamine present present case and that in the hydroxylamine-absent case and, further, compared with effects of known precursors of the kind which release antifoggants without ring-cleavage (Comparison Precursor (A-1) and Comparison Precursor (A-2)).

Data set [2] is described as follows: Acceleration effect of hydroxylamine upon release of pyrazolidones from precursors (half-life). The data set is classed as physicochemical. The conditions noted are these: for Acceleration Effect: pH 10.0, half-life hydroxylamine absent vs present; for t1/2 Hydroxylamine Absent / t1/2 Hydroxylamine Present: release of pyrazolidones; for t1/2 Hydroxylamine Absent: pH 10.0, hydroxylamine absent; for t1/2 Hydroxylamine Present: pH 10.0, hydroxylamine present. The protocol: as §1, §2
Measurement of Acceleration Effect on Hydroxylamine upon Release of Pyrazolidones from Precursors Thereof
The acceleration effects of hydroxylamine upon release of pyrazolidones were determined in the same way as in Example 1, and the results obtained are shown in Table 2 below.

[3] abbreviates: pH 10.0, half-life hydroxylamine absent vs present.
Where [4] appears, read: pH 11.0, half-life hydroxylamine absent vs present.
Setting [5] is: pH 10.0, hydroxylamine present (3.8×10^-4 mole).
[6] abbreviates: pH 11.0, hydroxylamine present (3.8×10^-4 mole).

Take `O=C1c2ccc([N+](=O)[O-])cc2C(=O)N1CSc1nnnn1-c1ccccc1` [(I)-(10)]: the “Acceleration Effect” value in data set [1] (setting [3]) is 8.1; in data set [1] (setting [4]), 3.0. In addition, the “t1/2 Hydroxylamine Absent” value came out at 320 s in data set [1] (pH 10.0, hydroxylamine absent) and 37 s in data set [1] (pH 11.0, hydroxylamine absent). The “t1/2 Hydroxylamine Present” value worked out at 38 s in data set [1] (setting [5]) and 12 s in data set [1] (setting [6]).
In the case of `CC(CC#N)Sc1nnnn1-c1ccccc1` (centres unmarked) [Comparison Precursor (A-2), reference compound], the “change in releasing speed due to addition of hydroxylamine” value in data set [1] was “reduced the releasing speed rather than accelering it, or hardly showed any appreciable change in the releasing speed”. For the same compound, the “Acceleration Effect” value in data set [1] (setting [3]) and in data set [1] (setting [4]) was 1.1 throughout. Further, the “t1/2 Hydroxylamine Absent” value in data set [1] (pH 10.0, hydroxylamine absent) is 25,000 sec; in data set [1] (pH 11.0, hydroxylamine absent), 2,900 sec. Also, the entries for the “t1/2 Hydroxylamine Present” value in data set [1] (setting [5]) and in data set [1] (setting [6]) were 23,000 sec and 2,700 sec, respectively.
Take `CN1C(=O)c2cccc(N(C)C(=O)Sc3nnnn3-c3ccccc3)c2C1=O` [(IV)-(2)]: the entries for the “Acceleration Effect” value in data set [1] (setting [3]) and in data set [1] (setting [4]) were 5.0 and 4.1, respectively. For the same compound, the “t1/2 Hydroxylamine Absent” value is 3,500 sec in data set [1] (pH 10.0, hydroxylamine absent) and 420 s in data set [1] (pH 11.0, hydroxylamine absent). Moreover, the “t1/2 Hydroxylamine Present” value came to 700 s in data set [1] (setting [5]) and 100 s in data set [1] (setting [6]).
Consider `CN(C(=O)Sc1nnnn1-c1ccccc1)c1cccc2c1COC2=O` [(V)-(1)], for which the “Acceleration Effect” value in data set [1] (setting [3]) is given as 25; in data set [1] (setting [4]), 27. The “t1/2 Hydroxylamine Absent” value is given as 53,000 sec in data set [1] (pH 10.0, hydroxylamine absent) and 6,200 sec in data set [1] (pH 11.0, hydroxylamine absent). The “t1/2 Hydroxylamine Present” value was 2,100 sec in data set [1] (setting [5]) and 230 s in data set [1] (setting [6]).
Turning to `O=C1OC(Sc2nnnn2-c2ccccc2)(c2ccccc2)c2ccc([N+](=O)[O-])cc21` (centres unmarked) [(III)-(14)], the “Acceleration Effect” value in data set [1] (setting [3]) was determined as 27; in data set [1] (setting [4]), 25. For the same compound, the “t1/2 Hydroxylamine Absent” value in data set [1] (pH 10.0, hydroxylamine absent) was 9,000 sec; in data set [1] (pH 11.0, hydroxylamine absent) it was 980 s. Moreover, the “t1/2 Hydroxylamine Present” value in data set [1] (setting [5]) was 340 s; in data set [1] (setting [6]) it was 39 s.
Regarding `O=C1c2ccccc2S(=O)(=O)N1CSc1nnnn1-c1ccccc1` [(I)-(15)], the “Acceleration Effect” value is recorded as 37 in data set [1] (setting [3]) and 16 in data set [1] (setting [4]). Also, the “t1/2 Hydroxylamine Absent” value was 3,700 sec in data set [1] (pH 10.0, hydroxylamine absent) and 470 s in data set [1] (pH 11.0, hydroxylamine absent). The figures for the “t1/2 Hydroxylamine Present” value in data set [1] (setting [5]) and in data set [1] (setting [6]) were 100 s and 29 s, respectively.
For `CNC(=O)Nc1cccc(-n2nnnc2SCN2C(=O)c3ccccc3S2(=O)=O)c1` [(I)-(16)], the “Acceleration Effect” value is 35 in data set [1] (setting [3]) and 18 in data set [1] (setting [4]). Moreover, the “t1/2 Hydroxylamine Absent” value in data set [1] (pH 10.0, hydroxylamine absent) is 4,100 sec; in data set [1] (pH 11.0, hydroxylamine absent), 490 s. Also, the “t1/2 Hydroxylamine Present” value in data set [1] (setting [5]) worked out at 120 s; in data set [1] (setting [6]) it was 27 s.
As for `CC1(C)CN(c2ccccc2)N(CN2C(=O)c3ccccc3S2(=O)=O)C1=O` [(I)-(19)], in data set [2], the “Acceleration Effect” value amounted to 19, the “t1/2 Hydroxylamine Absent” value is listed as 7,200 sec and the “t1/2 Hydroxylamine Present” value amounted to 370 s.
For the compound `O=C1CCC(=O)N1CSc1nnnn1-c1ccccc1` [(II)-(1)], the “Acceleration Effect” value is given as 5.2 in data set [1] (setting [3]) and 2.5 in data set [1] (setting [4]). Further, the “t1/2 Hydroxylamine Absent” value in data set [1] (pH 10.0, hydroxylamine absent) was 5,700 sec; in data set [1] (pH 11.0, hydroxylamine absent) it was 650 s. For the same compound, the “t1/2 Hydroxylamine Present” value was 1,200 sec in data set [1] (setting [5]) and 260 s in data set [1] (setting [6]).
As for `CN1C(=O)c2cccc(N(C)C(=O)OC3=NN(c4ccccc4)CC3(C)CO)c2C1=O` (centres unmarked) [(IV)-(5)], in data set [2], the “Acceleration Effect” value was 6.3, the “t1/2 Hydroxylamine Absent” value is listed as 5,600 sec and the “t1/2 Hydroxylamine Present” value is 880 s.
Take `O=C1c2ccccc2C(=O)N1COC1=NN(c2ccccc2)CC1` [Compound (I)-(14), 1-phenyl-3-(N-phthalimidomethyloxy)-2-pyrazoline]: in data set [2], the “Acceleration Effect” value was 8.2, the “t1/2 Hydroxylamine Absent” value is reported as 3,200 sec and the “t1/2 Hydroxylamine Present” value was found to be 390 s.
As for `O=C1OC(Sc2nnnn2-c2ccccc2)c2ccccc21` (centres unmarked) [(III)-(1)], the “Acceleration Effect” value is 29 in data set [1] (setting [3]) and 30 in data set [1] (setting [4]). The “t1/2 Hydroxylamine Absent” value in data set [1] (pH 10.0, hydroxylamine absent) is on record as 27,000 sec; in data set [1] (pH 11.0, hydroxylamine absent), 3,300 sec. Also, the “t1/2 Hydroxylamine Present” value is 960 s in data set [1] (setting [5]) and 110 s in data set [1] (setting [6]).
Turning to `O=C1OC(N2C(=O)CCN2c2ccccc2)c2ccc([N+](=O)[O-])cc21` (centres unmarked) [(III)-(7)], in data set [2], the “Acceleration Effect” value is listed as 29, the “t1/2 Hydroxylamine Absent” value is listed as 13,000 sec and the “t1/2 Hydroxylamine Present” value came to 450 s.
For the compound `O=C1CCN(c2ccccc2)N1CN1C(=O)c2ccccc2S1(=O)=O` [Compound (I)-(18), N-(1-phenyl-3-pyrazolidinone-2-ylmethyl)saccharin], in data set [2], the “Acceleration Effect” value worked out at 21, the “t1/2 Hydroxylamine Absent” value is 9,300 sec and the “t1/2 Hydroxylamine Present” value was 440 s.
With `O=C1CC(Sc2nnnn2-c2ccccc2)C(=O)N1c1ccccc1` (centres unmarked) [Comparison Precursor (A-1), reference compound], the “change in releasing speed due to addition of hydroxylamine” value in data set [1] is recorded as “reduced the releasing speed rather than accelering it, or hardly showed any appreciable change in the releasing speed”. Further, the “Acceleration Effect” value was found to be 0.61 in data set [1] (setting [3]) and 0.82 in data set [1] (setting [4]). The “t1/2 Hydroxylamine Absent” value was 2,600 sec in data set [1] (pH 10.0, hydroxylamine absent) and 310 s in data set [1] (pH 11.0, hydroxylamine absent). Moreover, the “t1/2 Hydroxylamine Present” value in data set [1] (setting [5]) is 4,200 sec; in data set [1] (setting [6]), 380 s.
As for `O=C1c2ccccc2C(=O)N1CN1C(=O)CCN1c1ccccc1` [Compound (I)-(13), 1-phenyl-2-(N-phthalimidomethyl)-3-pyrazolidinone], in data set [2], the “Acceleration Effect” value is 3.6, the “t1/2 Hydroxylamine Absent” value is recorded as 9,400 sec and the “t1/2 Hydroxylamine Present” value is 2,600 sec.

Values taken from patent US4629683A, “Processing silver halide photographic material with blocked agent and hydroxylamine” (Fuji Photo Film Co., Ltd., priority 1983, dated 1986).
